US10851067B2, “Kv7 channel activators compositions and methods of use” (Knopp Biosciences LLC, priority 2018, dated 2020)

Target: Kv7.2/7.3 (Homo sapiens, UniProt O43525+O43526)
Assay: Kv7.2/7.3 Activation Assay, QPatch single concentration screen
Type: cell-based
Set-up: host or cells: HEK cells, tetracycline-inducible expression; key: 1.2-2.9 (+); 3-3.9 (++); >4 (+++) fold increase over baseline; O represents open channel at holding potential
Settings: Kv7.2/Kv7.3 co-expressing HEK cells, compound concentration 3 μM, steady-state current at end of 2 s pulse to −30 mV
How it was run: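 Tetracycline-induced HEK cells expressing human Kv7.2/7.3, recorded 24 h post-induction by automated planar patch clamp. From −80 mV, 2 s steps to −30 mV then 100 ms to −120 mV; compound tested at 3 μM (0.1% DMSO). Steady-state current at end of −30 mV step gives fold increase over baseline.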

SMILES	Kv7.2/7.3 Activity: increase over baseline in current
CC(C)(CC(=O)Nc1nc2c(F)cc(C3(O)CCC3)cc2n1C1CCC1)C(F)(F)F [Example 352, N-(1-cyclobutyl-4-fluoro-6-(1-hydroxycyclobutyl)-1H-benzo[d]imidazol-2-yl)-4,4,4-trifluoro-3,3-dimethylbutanamide]	++ (3-3.9 (++))
CC(O)(CC(=O)Nc1nc2cc(F)c(C#N)cc2n1C1CCC1)c1ccccc1 (single isomer, unassigned) [Example 350, N-(6-cyano-1-cyclobutyl-5-fluoro-1H-benzo[d]imidazol-2-yl)-3-hydroxy-3-phenylbutanamide]	+ (1.2-2.9 (+))
CC(=O)c1c(F)ccc2nc(NC(=O)CC(C)(O)c3ccccc3)n(C3(C)CCC3)c12 (single isomer, unassigned) [Example 360, N-(7-acetyl-6-fluoro-1-(1-methylcyclobutyl)-1H-benzo[d]imidazol-2-yl)-3-hydroxy-3-phenylbutanamide]	O
CC(C)(O)c1cc(F)c2nc(NC(=O)CSC(F)(F)F)n(C3CCC3)c2c1 [Example 413, N-(1-cyclobutyl-4-fluoro-6-(2-hydroxypropan-2-yl)-1H-benzo[d]imidazol-2-yl)-2-((trifluoromethyl)thio)acetamide]	+++ (>4 (+++) fold increase over baseline)
CC(C)(CC(=O)Nc1nc2cccc(C#N)c2n1C1(C)CCC1)C1CC1 [Example 426, N-(7-cyano-1-(1-methylcyclobutyl)-1H-benzo[d]imidazol-2-yl)-3-cyclopropyl-3-methylbutanamide]	+++ (>4 (+++) fold increase over baseline)
CC(C)(CC(=O)Nc1nc2c(F)cc(C#N)cc2n1C(C)(C)C)C(F)F [Example 364, N-(1-(tert-butyl)-6-cyano-4-fluoro-1H-benzo[d]imidazol-2-yl)-4,4-difluoro-3,3-dimethylbutanamide]	++ (3-3.9 (++))

Second part, the molecule after the results:

Kv7.2/7.3 Activity: increase over baseline in current	SMILES
O	CC(C)(C)CC(=O)Nc1nc2cc(F)c(C3(O)CCC3)c(F)c2n1C1CCC1 [Example 424, N-(1-cyclobutyl-5,7-difluoro-6-(1-hydroxycyclobutyl)-1H-benzo[d]imidazol-2-yl)-3,3-dimethylbutanamide]
O	CC(C)(C)CC(=O)Nc1nc2ccc(C(C)(C)O)c(F)c2n1C1(C)CCC1 [Example 481, N-(7-fluoro-6-(2-hydroxypropan-2-yl)-1-(1-methylcyclobutyl)-1H-benzo[d]imidazol-2-yl)-3,3-dimethylbutanamide]
O	CC(CF)(CF)CC(=O)Nc1nc2c(F)cc(C(C)(C)O)cc2n1C1(C)CCC1 [Example 480, 4-fluoro-N-(4-fluoro-6-(2-hydroxypropan-2-yl)-1-(1-methylcyclobutyl)-1H-benzo[d]imidazol-2-yl)-3-(fluoromethyl)-3-methylbutanamide]
O	C[C@@H](CC(=O)Nc1nc2c(F)cc(C(C)(C)O)cc2n1C1CCC1)c1ccccc1 [Example 410, (S)-N-(1-cyclobutyl-4-fluoro-6-(2-hydroxypropan-2-yl)-1H-benzo[d]imidazol-2-yl)-3-phenylbutanamide]
+ (1.2-2.9 (+))	CC1(n2c(NC(=O)CC(C)(C)C(F)(F)F)nc3c(F)cc(OC(F)F)cc32)CCC1 [Example 461, N-(6-(difluoromethoxy)-4-fluoro-1-(1-methylcyclobutyl)-1H-benzo[d]imidazol-2-yl)-4,4,4-trifluoro-3,3-dimethylbutanamide]
++ (3-3.9 (++))	CC(O)(CC(=O)Nc1nc2cc(F)cc(C#N)c2n1C1(C)CCC1)c1ccccc1 (single isomer, unassigned) [Example 465, N-(7-cyano-5-fluoro-1-(1-methylcyclobutyl)-1H-benzo[d]imidazol-2-yl)-3-hydroxy-3-phenylbutanamide]
